Results: ChEMBL document CHEMBL5346863, “Discovery of substituted benzyloxy-benzylamine inhibitors of acetyltransferase Eis and their anti-mycobacterial activity” (Eur J Med Chem, 2022)
Values after ≈ are worked out from the molar mass of the structure shown. Active and inactive are the calls of the source. No cut-off for these calls is given here.

Columns and labels:
N-acetyltransferase Eis = target: T1, N-acetyltransferase Eis (Mycobacterium tuberculosis (strain ATCC 25618 / H37Rv), UniProt P9WFK7); experiment: Inhibition of wild-type Mycobacterium tuberculosis Eis expressed in Escherichia coli BL21(DE3) cells incubated for 5 mins by Ellman's method
T1 sequence (P9WFK7 whole entry): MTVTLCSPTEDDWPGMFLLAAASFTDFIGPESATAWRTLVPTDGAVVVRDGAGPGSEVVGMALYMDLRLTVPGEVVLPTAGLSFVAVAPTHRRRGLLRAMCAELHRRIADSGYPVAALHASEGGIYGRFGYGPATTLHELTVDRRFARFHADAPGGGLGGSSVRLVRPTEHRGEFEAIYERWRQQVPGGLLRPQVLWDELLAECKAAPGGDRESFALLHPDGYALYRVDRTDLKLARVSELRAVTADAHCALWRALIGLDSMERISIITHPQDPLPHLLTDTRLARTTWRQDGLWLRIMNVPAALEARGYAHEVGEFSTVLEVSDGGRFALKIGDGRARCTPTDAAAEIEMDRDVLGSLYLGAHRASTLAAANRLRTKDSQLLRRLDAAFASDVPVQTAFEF

[1] = test system: Mycobacterium intracellulare; experiment: Antibacterial activity against Mycobacterium intracellulare ATCC 13950 assessed as bacterial growth inhibition incubated for 2 to 3 weeks by resazurin dye based assay; format: functional; conditions: time 2-3 weeks
[2] = test system: Mycobacterium tuberculosis; experiment: Antibacterial activity against Mycobacterium tuberculosis mc2 6230 assessed as bacterial growth inhibition incubated 2 to 3 weeks by resazurin dye based assay; format: functional; conditions: time 2-3 weeks
Mycobacterium avium = experiment: Antibacterial activity against Mycobacterium avium ATCC 25291 assessed as bacterial growth inhibition incubated for 2 to 3 weeks by resazurin dye based assay; format: functional; conditions: time 2-3 weeks
[3] = test system: Mycobacteroides abscessus; experiment: Antibacterial activity against Mycobacterium abscessus ATCC 19977 assessed as bacterial growth inhibition incubated for 2 to 3 weeks by resazurin dye based assay; format: functional; conditions: time 2-3 weeks
[4] = test system: Mycobacterium tuberculosis; experiment: Antibacterial activity against Mycobacterium tuberculosis H37Rv assessed as MIC of kanamycin A at 71.7 uM incubated for 24 hrs followed by kanamycin A addition measured after 6 days by alamarblue dye based assay; format: functional, organism-based; conditions: time 7.0 day
[5] = test system: Mycobacterium tuberculosis; experiment: Antibacterial activity against Mycobacterium tuberculosis H37Ra assessed as bacterial growth inhibition incubated 2 to 3 weeks by resazurin dye based assay; format: functional; conditions: time 2-3 weeks
[6] = test system: Mycobacterium tuberculosis; experiment: Antibacterial activity against Mycobacterium tuberculosis H37Rv assessed as MIC of kanamycin A at 100 uM incubated for 24 hrs followed by kanamycin A addition measured after 6 days by alamarblue dye based assay; format: functional; conditions: for Activity: time 7.0 day; for MIC: 168 h, time 7 day
[7] = test system: Mycobacterium tuberculosis; experiment: Antibacterial activity against Mycobacterium tuberculosis K204 assessed as MIC of kanamycin A at 71.7 uM incubated for 24 hrs followed by kanamycin A addition measured after 6 days by alamarblue dye based assay; format: functional, organism-based; conditions: time 7.0 day
HEK293 = experiment: Cytotoxicity against HEK293 cells upto 12.5 uM incubated for 24 hrs by resazurin dye based cell viability assay; format: toxicity; conditions: human, hek293, 24 h
[8] = test system: Mycolicibacterium smegmatis; experiment: Antibacterial activity against Mycobacterium smegmatis mc2 122 assessed as bacterial growth inhibition incubated for 2 to 3 weeks by resazurin dye based assay; format: functional; conditions: time 2-3 weeks
J774.1 = experiment: Cytotoxicity against mouse J774.1 cells upto 12.5 uM incubated for 24 hrs by resazurin dye based cell viability assay; format: toxicity; conditions: j774.1, 24 h
A549 = experiment: Cytotoxicity against human A549 cells upto 12.5 uM incubated for 24 hrs by resazurin dye based cell viability assay; format: toxicity; conditions: a549, 24 h
[9] = test system: Mycobacterium parascrofulaceum; experiment: Antibacterial activity against Mycobacterium parascrofulaceum ATCC BAA-614 assessed as bacterial growth inhibition incubated for 2 to 3 weeks by resazurin dye based assay; format: functional; conditions: time 2-3 weeks
[10] = test system: Mycobacterium tuberculosis; experiment: Antibacterial activity against Mycobacterium tuberculosis H37Rv assessed as MIC of kanamycin A at 54.8 uM incubated for 24 hrs followed by kanamycin A addition measured after 6 days by alamarblue dye based assay; format: functional, organism-based; conditions: time 7.0 day
[11] = test system: Mycobacterium tuberculosis; experiment: Antibacterial activity against Mycobacterium tuberculosis K204 assessed as MIC of kanamycin A at 54.8 uM incubated for 24 hrs followed by kanamycin A addition measured after 6 days by alamarblue dye based assay; format: functional, organism-based; conditions: time 7.0 day

In the case of Fc1ccc(COc2ccc(CNCc3cccnc3)cc2)cc1, the IC50 (N-acetyltransferase Eis) is reported as 3.9 µM, the MIC [1] is reported as 31.3 µM (≈ 10.1 µg/mL) and the MIC [2] is reported as 50 µM (≈ 16.1 µg/mL). For the same molecule, the MIC (Mycobacterium avium) was over 62.5 µM, the MIC [3] was 31.3 µM (≈ 10.1 µg/mL) and the Activity [4] was “Active”. The MIC [5] was 31.3 µM (≈ 10.1 µg/mL), the Activity [6] was “Active” and the Activity [7] was “Active”.

In the case of Clc1cccc(COc2ccccc2CNCc2ccccc2)c1, the Activity (HEK293) is reported as “Non-Toxic”, the IC50 (N-acetyltransferase Eis) is reported as 6.5 µM and the MIC [2] is reported as 50 µM (≈ 16.9 µg/mL). It also gave an MIC [8] of 62.5 µM (≈ 21.1 µg/mL), an MIC (Mycobacterium avium) of over 62.5 µM and an MIC [3] of 31.3 µM (≈ 10.6 µg/mL). For the same molecule, the MIC [5] was 31.3 µM (≈ 10.6 µg/mL), the Activity (J774.1) was “Non-Toxic” and the Activity [6] was “Active”. The Activity (A549) was “Non-Toxic”.

For Clc1ccc(COc2cccc(CNCc3ccccc3)c2)cc1, the IC50 (N-acetyltransferase Eis) was 5.4 µM, the MIC [2] was 12.5 µM (≈ 4.22 µg/mL) and the MIC [3] was 31.3 µM (≈ 10.6 µg/mL). For the same molecule, the MIC [5] was 15.6 µM (≈ 5.27 µg/mL).

In the case of Clc1ccc(COc2ccccc2CNCc2ccccc2)cc1, the Activity (HEK293) is reported as “Non-Toxic”, the IC50 (N-acetyltransferase Eis) is reported as 5.4 µM and the MIC [1] is reported as 31.3 µM (≈ 10.6 µg/mL). For the same molecule, the MIC [2] was 50 µM (≈ 16.9 µg/mL), the MIC [9] was 31.3 µM (≈ 10.6 µg/mL) and the MIC [8] was 31.3 µM (≈ 10.6 µg/mL). For the same molecule, the MIC (Mycobacterium avium) was over 62.5 µM, the MIC [5] was 31.3 µM (≈ 10.6 µg/mL) and the Activity (J774.1) was “Non-Toxic”. The Activity [6] was “Active” and the Activity (A549) was “Non-Toxic”.

With Cc1ccc(COc2ccc(CNCc3ccccc3)cc2)cc1 the IC50 (N-acetyltransferase Eis) was over 200 µM, the MIC [1] was 15.6 µM (≈ 4.95 µg/mL) and the MIC [2] was 1.56 µM (≈ 0.495 µg/mL). The MIC [9] was 15.6 µM (≈ 4.95 µg/mL), the MIC [8] was 1 µM (≈ 0.317 µg/mL) and the MIC (Mycobacterium avium) was 15.6 µM (≈ 4.95 µg/mL). It also gave an MIC [3] of 31.3 µM (≈ 9.94 µg/mL) and an MIC [5] of 15.6 µM (≈ 4.95 µg/mL).

For c1ccc(COc2ccccc2CNCc2cccnc2)cc1, the IC50 (N-acetyltransferase Eis) was about 50 µM, the MIC [1] was over 62.5 µM and the MIC [2] was over 100 µM. The MIC [9] was over 62.5 µM, the MIC [8] was over 62.5 µM and the MIC (Mycobacterium avium) was over 62.5 µM. It also gave an MIC [3] of over 62.5 µM, an MIC [5] of over 250 µM and an MIC [6] of 2.5 µg/mL.

c1ccc(COc2ccccc2CNCc2ccncc2)cc1 showed an IC50 (N-acetyltransferase Eis) of about 40 µM, an MIC [1] of over 62.5 µM and an MIC [2] of over 100 µM. The MIC [9] was 62.5 µM (≈ 19 µg/mL), the MIC [8] was over 62.5 µM and the MIC (Mycobacterium avium) was over 62.5 µM. The MIC [3] was over 62.5 µM, the MIC [5] was 125 µM (≈ 38 µg/mL) and the MIC [6] was 2.5 µg/mL.

With NNC(=O)c1ccncc1 [ISONIAZID] the MIC [1] was 3.9 µM (≈ 0.535 µg/mL), the MIC [9] was 7.8 µM (≈ 1.07 µg/mL) and the MIC [8] was 3.9 µM (≈ 0.535 µg/mL). For the same molecule, the MIC (Mycobacterium avium) was over 31.3 µM and the MIC [3] was over 31.3 µM.

Fc1ccc(COc2ccc(CNCc3ccccc3)cc2)cc1 showed an IC50 (N-acetyltransferase Eis) of over 200 µM, an MIC [1] of over 62.5 µM and an MIC [2] of over 100 µM. The MIC [9] was over 62.5 µM, the MIC [8] was over 62.5 µM and the MIC (Mycobacterium avium) was over 62.5 µM. It also gave an MIC [3] of over 62.5 µM and an MIC [5] of over 250 µM.

c1ccc(CNCc2ccccc2OCc2ccccc2)cc1 showed an IC50 (N-acetyltransferase Eis) of about 15 µM, an MIC [1] of 31.3 µM (≈ 9.5 µg/mL) and an MIC [2] of 100 µM (≈ 30.3 µg/mL). The MIC [9] was 15.6 µM (≈ 4.73 µg/mL), the MIC [8] was over 62.5 µM and the MIC (Mycobacterium avium) was over 62.5 µM. The Activity [6] was “Active”.

COc1ccc(COc2ccc(CNCc3ccccc3)cc2)cc1 gave an IC50 (N-acetyltransferase Eis) of 12 µM, an MIC [2] of 12.5 µM (≈ 4.17 µg/mL) and an MIC [8] of 62.5 µM (≈ 20.8 µg/mL). For the same molecule, the MIC (Mycobacterium avium) was 31.3 µM (≈ 10.4 µg/mL), the MIC [3] was 31.3 µM (≈ 10.4 µg/mL) and the MIC [5] was 3.9 µM (≈ 1.3 µg/mL).

c1ccc(CNCc2ccc(OCc3ccc(-c4ccccc4)cc3)cc2)cc1 gave an IC50 (N-acetyltransferase Eis) of over 200 µM, an MIC [1] of 7.8 µM (≈ 2.96 µg/mL) and an MIC [2] of 12.5 µM (≈ 4.74 µg/mL). It also gave an MIC [9] of 15.6 µM (≈ 5.92 µg/mL), an MIC (Mycobacterium avium) of over 62.5 µM and an MIC [3] of 7.8 µM (≈ 2.96 µg/mL). It also gave an MIC [5] of 2 µM (≈ 0.759 µg/mL).

Clc1ccc(COc2cccc(CNCc3ccncc3)c2)cc1 was tested, and the IC50 (N-acetyltransferase Eis) was about 20 µM, the MIC [1] was 31.3 µM (≈ 10.6 µg/mL) and the Activity [10] was “Active”. It also gave an MIC [2] of 50 µM (≈ 16.9 µg/mL), an MIC (Mycobacterium avium) of over 62.5 µM and an MIC [3] of over 62.5 µM. The MIC [5] was 31.3 µM (≈ 10.6 µg/mL), the Activity [6] was “Active” and the Activity [11] was “Active”.

With Fc1ccc(COc2cccc(CNCc3cccnc3)c2)cc1 the IC50 (N-acetyltransferase Eis) was 6.4 µM, the MIC [1] was over 62.5 µM and the MIC [2] was 100 µM (≈ 32.2 µg/mL). For the same molecule, the MIC [9] was over 62.5 µM, the MIC [8] was over 62.5 µM and the MIC (Mycobacterium avium) was over 62.5 µM. It also gave an MIC [3] of over 62.5 µM, an MIC [5] of 62.5 µM (≈ 20.1 µg/mL) and an MIC [6] of at most 1.25 µg/mL.
